Measurements from patent publication US6444671B1, “Cyclic AMP-specific phosphodiesterase inhibitors” (ICOS Corporation, priority 1999, dated 2002).
pIC50: −log10 of the molar value. Like-named read-outs stand apart in the source and are kept apart here.

Columns and labels:
[1] = in vivo; cited from earlier work
recombinant human PDE4 [2] = tested on: T1, recombinant human PDE4; experiment: PDE4 inhibition, recombinant human PDE4, [32P]cAMP charcoal separation assay; type: biochemical
T1 construct: PDE4 IC50 (nM); other: recombinant human PDE4
Protocol: The compounds of structural formula (II) were tested for an ability to inhibit PDE4. The ability of a compound to inhibit PDE4 activity is related to the IC50 value for the compound, i.e., the concentration of inhibitor required for 50% inhibition of enzyme activity. The IC50 value for compounds of structural formula (II) were determined using recombinant human PDE4.
The production of recombinant human PDEs and the IC50 determinations can be accomplished by well-known methods in the art. Exemplary methods are described as follows:
Recombinant production of human PDE1B, PDE2, PDE4A, PDE4B, PDE4C, PDE4D, PDE5, and PDE7 was carried out similarly to that described in Example 7 of U.S. Pat. No. 5,702,936, incorporated herein by reference, except that the yeast transformation vector employed, which is derived from the basic ADH2 plasmid described in Price et al., Methods in Enzymology, 135, pp. 308-318 (1990), incorporated. yeast ADH2 promoter and terminator sequences and the Saccharomyces cerevisiae host was the protease-deficient strain BJ2-54 deposited on Aug. 31, 1998 with the American Type Culture Collection, Manassas, Va., under accession number ATCC 74465. Transformed host cells were grown in 2×SC-leu medium, pH 6.2, with trace metals, and vitamins. After 24 hours, YEP medium-containing glycerol was added to a final concentration of 2×YET/3% glycerol. Approximately 24 hr later, cells were harvested, washed, and stored at −70° C.
Phosphodiesterase activity of the preparations was determined as follows. PDE assays utilizing a charcoal separation technique were performed essentially as described in Loughney et al. (1996). In this assay, PDE activity converts [32P]cAMP or [32P]cGMP to the corresponding [32P]5′-AMP or [32P]5′-GMP in proportion to the amount of PDE activity present. The [32P]5′-AMP or [32P]5′-GMP then was quantitatively converted to free [32P]phosphate and unlabeled adenosine or guanosine by the action of snake venom 5′-nucleotidase. […] The assay was performed at 30° C. in a 100 μL reaction mixture containing (final concentrations) 40 mM Tris HCl (pH 8.0), 1 μM ZnSO4, 5 mM MgCl2, and 0.1 mg/mL bovine serum albumin (BSA) Alternatively, in assays assessing PDE1-specific activity, incubation mixtures further incorporated the use of 0.1 mM CaChe and 10 μg/mL calmodulin. PDE enzyme was present in quantities that yield<30% total hydrolysis of substrate (linear assay conditions). The assay was initiated by addition of substrate ([…] [32P]cAMP or cGMP), and the mixture was incubated for 12 minutes. […] After centrifugation (750×g for 3 minutes) to sediment the charcoal, a sample of the supernatant was taken for radioactivity determination in a scintillation counter and the PDE activity was calculated.

recombinant human PDE4 [3] = details: reported value, background section; read-out: IC50 with respect to inhibiting recombinant human PDE4; cited from earlier work

Molecule | pIC50 (recombinant human PDE4 [2]) | also measured
R-rolipram | – | Emetic potential relative to the (+)-enantiomer (S-rolipram) [1]: about ten-fold more emetic
CCc1nn(C2CCCC2)c2cc([C@@H]3CN(C(=O)OC)C[C@@]3(C)CO)ccc12 [Example 4, Methyl (3S,4S)-4-(1-cyclopentyl-3-ethyl(1H-indazol-6-yl))-3-(hydroxymethyl)-3-methyl Pyrrolidine Carboxylate] | 7.10 | –
CCc1nn(C2CCCC2)c2cc([C@@H]3CN(Cc4ccccc4)C[C@@]3(C)C(C)O)ccc12 (stereo partly drawn) [Example 2, (1R)-1-[(3S,4S)-4-(1-Cyclopentyl-3-ethyl(1H-indazol-6-yl))-3-methyl-1-benzylpyrrolidin-3-yl]ethan-1-ol] | 7.06 | –
CCc1nn(C2CCCC2)c2cc([C@@H]3CN(Cc4ccccc4)C[C@@]3(C)C(C)O)ccc12 (stereo partly drawn) [Example 1, (1S)-1-[(3S,4S)-4-(1-Cyclopentyl-3-ethyl(1H-indazol-6-yl))-3-methyl-1-benzylpyrrolidin-3-yl]ethan-1-ol] | 6.50 | –
COC(=O)N1CC(c2ccc(OC)c(OC3CCCC3)c2)C(C)(C(C)=O)C1 (stereo not shown) [formula (I)] | – | pIC50 (recombinant human PDE4 [3]): ~8.70
CCc1nn(C2CCCC2)c2cc([C@@H]3CN(Cc4ccccc4)C[C@@]3(C)CO)ccc12 [Example 3, [(3S,4S)-4-(1-Cyclopentyl-3-ethyl(1H-indazol-6-yl))-3-methyl-1-benzylpyrrolidin-3-yl]methan-1-ol] | 8.21 | –
COc1ccc(C2CNC(=O)C2)cc1OC1CCCC1 (stereo not shown) [Rolipram, rolipram] | – | pIC50 (recombinant human PDE4 [3]): ~6.70
